Laboratory results published in the NIST ThermoML archive (doi:10.1021/je060411g).
± gives the expanded uncertainty stated by the source.

Assay: molar heat capacity at constant pressure
Details: 101.33 kPa

CC(C)C(C)O (stereo unspecified) [3-methyl-2-butanol]
Details | molar heat capacity at constant pressure [J/K/mol]
84.8 K, Glass | 64.32 ± 1.6
85.35 K, Glass | 64.92 ± 1.6
86.61 K, Glass | 65.12 ± 1.6
87.96 K, Glass | 65.91 ± 1.6
88.5 K, Glass | 66.12 ± 1.6
88.57 K, Glass | 66.46 ± 1.6
89.76 K, Glass | 68.19 ± 1.7
90.5 K, Glass | 68.52 ± 2
91.72 K, Glass | 69.65 ± 2.1
92.44 K, Glass | 69.5 ± 2.1
93.66 K, Glass | 70.82 ± 2.1
94.37 K, Glass | 70.42 ± 2.1
95.6 K, Glass | 72.69 ± 2.1
96.3 K, Glass | 72.33 ± 2.1
97.54 K, Glass | 73.76 ± 2.1
98.24 K, Glass | 73.35 ± 2.1
99.48 K, Glass | 75.44 ± 2.2
100.17 K, Glass | 75.01 ± 2.2
101.42 K, Glass | 76.81 ± 2.2
102.11 K, Glass | 76.45 ± 2.2
103.37 K, Glass | 78.23 ± 2.2
104.06 K, Glass | 77.94 ± 2.2
105.32 K, Glass | 79.77 ± 2.2
106 K, Glass | 79.31 ± 2.2
107.95 K, Glass | 80.89 ± 2.3
109.9 K, Glass | 82.57 ± 2.3
110.42 K, Glass | 83.46 ± 2.3
110.85 K, Glass | 82.24 ± 2.3
111.85 K, Glass | 84.29 ± 2.3
112.07 K, Glass | 84.44 ± 2.3
113.8 K, Glass | 85.97 ± 2.4
114.04 K, Glass | 86.22 ± 2.4
115.76 K, Glass | 87.69 ± 2.4
116 K, Glass | 87.96 ± 2.4
117.71 K, Glass | 89.53 ± 2.4
119.67 K, Glass | 91.4 ± 2.5
121.44 K, Glass | 93.27 ± 2.5
121.62 K, Glass | 93.55 ± 2.5
122.07 K, Glass | 94.36 ± 2.5
123.27 K, Glass | 95.77 ± 2.5
123.58 K, Glass | 95.92 ± 2.5
125.24 K, Glass | 98.99 ± 2.6
125.53 K, Glass | 98.88 ± 2.6
127.2 K, Glass | 102.7 ± 2.7
127.49 K, Glass | 103.22 ± 2.7
129.14 K, Glass | 107.45 ± 2.8
134.82 K, Liquid | 136.07 ± 3.3
135.09 K, Liquid | 140.35 ± 3.4
136.74 K, Liquid | 138.24 ± 3.4
137.01 K, Liquid | 138.6 ± 3.4
138.7 K, Liquid | 138.95 ± 3.4
138.97 K, Liquid | 138.85 ± 3.4
140.69 K, Liquid | 139.38 ± 3.4
140.95 K, Liquid | 139.07 ± 3.4
142.67 K, Liquid | 139.54 ± 3.4
142.93 K, Liquid | 139.3 ± 3.4
144.66 K, Liquid | 139.76 ± 3.4
144.91 K, Liquid | 139.63 ± 3.4
146.65 K, Liquid | 140.2 ± 3.4
146.9 K, Liquid | 139.94 ± 3.4
148.63 K, Liquid | 140.52 ± 3.4
148.88 K, Liquid | 140.31 ± 3.4
150.86 K, Liquid | 140.31 ± 3.4
152.85 K, Liquid | 140.9 ± 3.4
154.84 K, Liquid | 141.35 ± 3.4
156.74 K, Liquid | 142.41 ± 3.4
156.82 K, Liquid | 141.64 ± 3.4
158.09 K, Liquid | 142.73 ± 3.5
158.81 K, Liquid | 142.09 ± 3.4
160.22 K, Liquid | 143.13 ± 3.5
160.79 K, Liquid | 142.41 ± 3.4
162.32 K, Liquid | 143.63 ± 3.5
162.78 K, Liquid | 142.9 ± 3.5
164.37 K, Liquid | 144.12 ± 3.5
164.76 K, Liquid | 143.07 ± 3.5
166.39 K, Liquid | 145.96 ± 3.5
166.75 K, Liquid | 143.51 ± 3.5
168.38 K, Liquid | 145.62 ± 3.5
168.73 K, Liquid | 143.97 ± 3.5
170.37 K, Liquid | 146.06 ± 3.5
170.72 K, Liquid | 144.62 ± 3.5
172.37 K, Liquid | 145.89 ± 3.5
172.7 K, Liquid | 145.15 ± 3.5
174.37 K, Liquid | 146.25 ± 3.5
174.69 K, Liquid | 145.71 ± 3.5
176.36 K, Liquid | 147.39 ± 3.5
176.67 K, Liquid | 146.37 ± 3.5
178.34 K, Liquid | 147.47 ± 3.5
178.66 K, Liquid | 147.29 ± 3.5
180.33 K, Liquid | 147.95 ± 3.5
180.64 K, Liquid | 148.09 ± 3.6
182.33 K, Liquid | 148.74 ± 3.6
182.63 K, Liquid | 149.07 ± 3.6
184.32 K, Liquid | 149.21 ± 3.6
184.61 K, Liquid | 149.6 ± 3.6
186.31 K, Liquid | 149.62 ± 3.6
186.6 K, Liquid | 150.32 ± 3.6
188.3 K, Liquid | 149.99 ± 3.6
188.59 K, Liquid | 150.72 ± 3.6
190.3 K, Liquid | 150.82 ± 3.6
190.58 K, Liquid | 151.56 ± 3.6
192.29 K, Liquid | 151.37 ± 3.6
192.57 K, Liquid | 152.24 ± 3.6
194.28 K, Liquid | 152 ± 3.6
194.56 K, Liquid | 152.93 ± 3.6
196.27 K, Liquid | 152.73 ± 3.6
196.55 K, Liquid | 153.74 ± 3.7
198.26 K, Liquid | 153.78 ± 3.7
198.54 K, Liquid | 154.39 ± 3.7
200.25 K, Liquid | 154.7 ± 3.7
200.53 K, Liquid | 155.32 ± 3.7
202.24 K, Liquid | 155.43 ± 3.7
202.51 K, Liquid | 156.2 ± 3.7
204.23 K, Liquid | 156.17 ± 3.7
204.5 K, Liquid | 157.11 ± 3.7
206.21 K, Liquid | 156.91 ± 3.7
206.48 K, Liquid | 158.08 ± 3.8
208.2 K, Liquid | 157.81 ± 3.8
208.47 K, Liquid | 159.14 ± 3.8
210.18 K, Liquid | 158.87 ± 3.8
210.46 K, Liquid | 160.17 ± 3.8
212.17 K, Liquid | 159.83 ± 3.8
214.15 K, Liquid | 160.86 ± 3.8
216.12 K, Liquid | 161.85 ± 3.8
218.08 K, Liquid | 163.18 ± 3.9
220.04 K, Liquid | 164.39 ± 3.9
221.99 K, Liquid | 165.9 ± 3.9
223.93 K, Liquid | 167.49 ± 3.9
225.86 K, Liquid | 168.89 ± 4
227.79 K, Liquid | 170.77 ± 4
229.71 K, Liquid | 172.05 ± 4
231.62 K, Liquid | 173.69 ± 4.1
233.53 K, Liquid | 175.59 ± 4.1
235.43 K, Liquid | 177.3 ± 4.1
237.32 K, Liquid | 178.86 ± 4.2
239.2 K, Liquid | 180.5 ± 4.2
241.08 K, Liquid | 182.29 ± 4.2
242.96 K, Liquid | 184.02 ± 4.3
244.82 K, Liquid | 185.3 ± 4.3
246.68 K, Liquid | 187.07 ± 4.3
248.53 K, Liquid | 188.6 ± 4.4
250.37 K, Liquid | 190.8 ± 4.4
252.21 K, Liquid | 192.67 ± 4.5
254.03 K, Liquid | 194.25 ± 4.5
255.85 K, Liquid | 196.29 ± 4.5
257.67 K, Liquid | 198.36 ± 4.6
259.47 K, Liquid | 200.36 ± 4.6
261.27 K, Liquid | 202.49 ± 4.7
263.06 K, Liquid | 204.59 ± 4.7
264.84 K, Liquid | 206.44 ± 4.7
266.62 K, Liquid | 208.79 ± 4.8
268.39 K, Liquid | 210.85 ± 4.8
270.15 K, Liquid | 212.97 ± 4.9
271.91 K, Liquid | 215.09 ± 4.9
273.66 K, Liquid | 217.48 ± 5
275.41 K, Liquid | 219.86 ± 5
277.14 K, Liquid | 222.01 ± 5
278.87 K, Liquid | 224.26 ± 5.1
280.6 K, Liquid | 226.68 ± 5.1
282.31 K, Liquid | 228.97 ± 5.2
284.02 K, Liquid | 230.98 ± 5.2
285.72 K, Liquid | 233.15 ± 5.3
287.42 K, Liquid | 234.9 ± 5.3
289.11 K, Liquid | 237.64 ± 5.4
290.79 K, Liquid | 239.38 ± 5.4
292.47 K, Liquid | 241.39 ± 5.4
294.15 K, Liquid | 243.38 ± 5.5
295.81 K, Liquid | 245.77 ± 5.5
297.47 K, Liquid | 247.45 ± 5.6
299.13 K, Liquid | 249.65 ± 5.6
300.78 K, Liquid | 250.94 ± 5.6
